The source of these data is patent US5185338A, “Medicament for treating cerebral insufficiency diseases, novel 2-(1-piperazinyl)-4-phenylcycloalkanopyrimidine derivatives, and process for the production thereof” (Dainippon Pharmaceutical Co., Ltd., priority 1989, dated 1993).

Broadly, the IC50 is the concentration that gives 50% inhibition. Read a low IC50 as inhibition by little substance.

Data set [1] has as its system scopolamine-induced hypermotility. Nature of the data set: Antagonistic effect on scopolamine-induced hypermotility. It is filed as in vivo, mice (Std-ddY strain). As to conditions: Mus musculus, po, read-out: Inhibitory ratio (% antagonism of scopolamine-induced hypermotility). As to the method:
Antagonistic effect on scopolamine-induced hypermotility:
A test compound was orally administered to each mouse, and 90 minutes after the administration, each one test animal was placed within a test cage (25×35×30 cm). After 30 minutes, scopolamine hydrobromide (1 mg/kg) was intraperitoneally administered to the mice and then the motility was measured with Animex activity meter for 30 minutes. The effect of test compounds was expressed as % antagonism (complete antagonism to the motility level of non-dosed animals=100%).

Data set [2] deals with scopolamine-induced deficit of spontaneous alternation behavior. The experiment in a line: Improving effect on scopolamine-induced deficit of spontaneous alternation behavior (T-maze). To be noted: scopolamine hydrobromide 1 mg/kg, non-dosed mice=100%. It is filed as in vivo, mice (Std-ddY strain). The text has this:
Improving effect on scopolamine-induced deficit of spontaneous alternation behavior:
A group of 15-25 male mice (Std-ddY strain, 22-28 g) was used for evaluating effect of the test compounds on scopolamine-induced deficit of spontaneous alternation in a T-maze, which is a known animal model of memory impairment due to hypofunction of the cholinergic nervous system. The T-maze used consists of a stem and two arms which are 25 cm long, 5 cm wide and 10 cm high. The first 10 cm of the stem and last 10 cm of each arm are divided by sliding doors into start and goal boxes.
A test compound and scopolamine hydrobromide (1 mg/kg) were intraperitoneally administered to each mouse, and after 30 minutes a test of spontaneous alternation task in the T-maze was continuously repeated for 8 trials. Commonly, naive mice alternate each (right and left) goal box in turn, but scopolamine-treated animals tend to enter the same goal box repeatedly. The effect of the test compounds was expressed as % improvement (complete improvement to the alternation level of non-dosed mice=100%).

In data set [3] the test system is cycloheximide-induced amnesia of passive avoidance response. Nature of the data set: Improving effect on cycloheximide-induced amnesia of passive avoidance response. It counts as in vivo, mice (Std-ddY strain). As to conditions: cycloheximide 60 mg/kg s.c., retention trial at 24 hours, non-dosed animals=100%. An excerpt: Improving effect on cycloheximide-induced amnesia of passive avoidance response:
Anti-amnesic effect of the test compounds was examined using mice given cycloheximide which is a known amnesia-inducing agent.
A group of 15-20 male mice (Std-ddY strain, 27-33 g) was subjected to training and retention trials for a passive avoidance task in a step-down apparatus (30×30×50 cm) with a grid floor and a wooden platform (4×4×4 cm) in a center of the floor. In the training trial, each mouse was first placed on the platform, and when the mouse stepped down on the grid floor, an electric shock (1 Hz, 0.5 sec, 60 VDC) was delivered to the feet for 15 seconds. Immediately after the training trial, cycloheximide (60 mg/kg, s.c.) and a test compound (i.p.) were administered. The retention trial was carried out 24 hours thereafter, and the time from placing again each mouse on the platform until stepping down on the grid floor (step-down latency) was measured. The step-down latency in the retention trial was markedly shortened by treatment of cycloheximide (amnesia). The effect of test compounds was assessed by % improvement (complete improvement to the latency level of non-dosed animals=100%).

In data set [4] the test system is sodium nitrite-induced anemic hypoxia. The experiment in a line: Protective effect on sodium nitrite-induced anemic hypoxia. It counts as in vivo, mice (Std-ddY strain). As to conditions: 10 mg/kg i.p., 2 hours before sodium nitrite 225 mg/kg i.p.; vs sodium nitrite alone. An excerpt: Protective effect on sodium nitrite-induced anemic hypoxia:
It is known that sodium nitrite (NaNO2) induces anemic hypoxia by converting hemoglobin to metohemoglobin, resulting in a severe impairment of brain function and ultimately in death. Based on the above knowledge, prolongation of survival time after sodium nitrite treatment was used as an index for antihypoxic effect of the test compounds.
A group of 20 male mice (Std-ddY strain, 25-30 g) was intraperitoneally given a test compound (10 mg/kg), and 2 hours after the treatment with the test compound, a lethal amount (225 mg/kg) of sodium nitrite was intraperitoneally administered, and then, the survival time of each mouse was measured. The effect of the test compounds was assessed by the prolongation rate (%) of survival time compared with that of the animals treated with sodium nitrite alone.

For the next data set, the target named is T1, dopamine (D2) receptor (Rattus norvegicus, UniProt P61169).
T1 construct: Crude synaptosome fractions prepared from some brain regions in rats were used as the receptor sources; from tissue
Nature of the data set: Dopamine (D2) receptor binding assay, [3H] spiperone. The arrangement: species or system rats. As to conditions: rat brain crude synaptosome fractions. As to the method: (§1) Effect of binding to dopamine (D2), serotonin (S1, S2) and adrenaline (α1) receptor (in vitro receptor binding assay):
(§2) Dopamine (D2), serotonin (S1, S2) and adrenaline (α1) receptor binding assays were carried out according to the methods of I. Creese et al. [Eur. J. Pharmacol., 46, 377 (1977)], S. J. Peroutka et al. [Mol. Pharmacol., 16, 687 (1979)], J. E. Leysen et al. [Mol. Pharmacol., 21, 301 (1982)], and D. C. U'Prichard et al. [Mol. Pharmacol., 13, 454 (1977)], respectively.
(§3) Crude synaptosome fractions prepared from some brain regions in rats were used as the receptor sources, and [^3 H] spiperone (D2), [^3 H] serotonin (S1), [^3 H] ketanserin (S2) and [^3 H] WB-4101 (α1) were used as the labelled ligands. The binding assay was performed by incubating aliquots of synaptosome fraction in buffer solution (final volume 1 ml) containing the receptor source and the labelled ligand in the presence of a test compound having various concentration thereof for a fixed time. The assay was terminated by rapid filtration through Whatman GF/B glass fiber filters attached to a cell-harvester (Brandel) and radioactivity on the filters was counted with a scintillation counter. Specific binding was calculated as a difference between the amount of radioactivity in the assay group and that in the control group which was separately measured likewise in the presence of an excess amount of an unlabelled ligand [spiperone (D2), serotonin (S1), methysergide (S2) and prazosin (α1)] instead of […]. The IC50 value of the test compounds (i.e. the concentration causing 50% inhibition of the labelled ligand specific binding) was determined by probit analysis.

A further data set has as its target serotonin (S1) receptor. Nature of the data set: Serotonin (S1) receptor binding assay, [3H] serotonin. To be noted: rat brain crude synaptosome fractions. The arrangement: species or system rats. The method, then:
as §1, §2, §3

Another data set addresses T2, serotonin (S2) receptor (Rattus norvegicus, UniProt P14842).
T2 construct: Crude synaptosome fractions prepared from some brain regions in rats were used as the receptor sources; from tissue
The experiment in a line: Serotonin (S2) receptor binding assay, [3H] ketanserin. The arrangement: species or system rats. To be noted: rat brain crude synaptosome fractions. As to the method: as §1, §2, §3

The next data set has as its target adrenaline (α1) receptor. The experiment in a line: Adrenaline (α1) receptor binding assay, [3H] WB-4101. To be noted: rat brain crude synaptosome fractions. The arrangement: species or system rats. The method, then: as §1, §2, §3
For data set [5], the system named is brain serotonin metabolite, 5-hydroxyindole-3-acetic acid (5-HIAA). Nature of the data set: Increasing effect on concentration of brain serotonin metabolite (5-HIAA). It counts as in vivo, mice (Std-ddY strain). To be noted: Mus musculus, 2 h, two hours after treatment, 5-HIAA level of non-dosed animals=100%. An excerpt:
Increasing effect on concentration of brain serotonin metabolite:
A group of 5 male mice (Std-ddY strain, 25-30 g) was used for examining effect of the test compounds on concentration of a brain serotonin metabolite, 5-hydroxyindole-3-acetic acid (5-HIAA).
Mice were killed by decapitation two hours after the treatment with the test compounds. Brains were quickly taken out, homogenized in 1N formic acid-acetone solution, and centrifuged in a refrigerated ultracentrifuge. The supernatant was evaporated by blowing with N2 gas, and then, the residue was again dissolved in 0.01N acetic acid, and served for determining 5-HIAA concentration by high performance liquid chromatography with electrochemical detection. The effect of the test compounds on 5-HIAA concentration was shown as % of control (5-HIAA level of non-dosed animals=100%).

A further data set has as its system mice. The experiment in a line: Acute toxicity. It counts as in vivo, mice (Std-ddY strain). As to conditions: 200 mg/kg orally; 7 days observation; 5 male mice. The method, then:
Experiment 8 Acute toxicity
A group of 5 male mice (Std-ddY strain, 25-30 g) was used. The test compound (200 mg/kg) was orally administered to the test animal in the form of a 0.5% tragacanth solution or suspension, and for 7 days after the administration of the test compound, the lethality of animals was observed.

T1 sequence (P61169 whole entry): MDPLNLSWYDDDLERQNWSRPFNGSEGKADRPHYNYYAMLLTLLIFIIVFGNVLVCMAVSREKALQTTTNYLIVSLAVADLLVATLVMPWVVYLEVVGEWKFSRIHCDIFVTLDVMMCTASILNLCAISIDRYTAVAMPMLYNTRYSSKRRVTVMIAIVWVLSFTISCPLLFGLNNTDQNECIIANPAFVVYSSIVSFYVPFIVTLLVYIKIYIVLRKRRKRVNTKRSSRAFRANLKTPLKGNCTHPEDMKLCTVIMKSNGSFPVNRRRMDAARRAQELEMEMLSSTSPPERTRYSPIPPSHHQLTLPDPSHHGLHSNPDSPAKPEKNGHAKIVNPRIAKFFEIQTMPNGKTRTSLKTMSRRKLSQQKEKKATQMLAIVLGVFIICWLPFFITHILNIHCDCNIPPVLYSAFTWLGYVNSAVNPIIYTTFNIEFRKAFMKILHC
T2 sequence (P14842 whole entry): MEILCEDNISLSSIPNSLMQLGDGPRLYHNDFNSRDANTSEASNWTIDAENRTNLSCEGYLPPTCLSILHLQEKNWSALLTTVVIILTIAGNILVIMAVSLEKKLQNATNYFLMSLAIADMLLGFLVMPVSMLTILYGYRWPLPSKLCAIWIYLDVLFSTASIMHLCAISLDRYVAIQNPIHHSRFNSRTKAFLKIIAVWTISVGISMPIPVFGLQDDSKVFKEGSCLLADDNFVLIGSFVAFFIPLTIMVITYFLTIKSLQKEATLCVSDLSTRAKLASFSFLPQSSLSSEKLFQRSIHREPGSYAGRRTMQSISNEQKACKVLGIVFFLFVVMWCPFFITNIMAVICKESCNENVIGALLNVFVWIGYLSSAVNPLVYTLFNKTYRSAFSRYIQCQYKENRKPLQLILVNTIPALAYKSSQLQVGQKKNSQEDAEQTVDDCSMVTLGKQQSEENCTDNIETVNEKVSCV

For the compound `Fc1ccc(-c2nc(N3CCNCC3)nc3c2CCC3)cc1` [Ex. 1, 2-(1-piperazinyl)-4-(4-fluorophenyl)-6,7-dihydro-5H-cyclopentapyrimidine], the inhibition in vivo at 3 mg/kg in data set [1] worked out at 60.7%. The “Improvement of scopolamine-induced deficit of spontaneous alternation” value in data set [2] (0.02 mg/kg i.p.) is 47.8%; in [2] (0.5 mg/kg i.p.) it was 51.9%. The “Improvement of cycloheximide-induced amnesia (step-down latency)” value is recorded as 33.8% in [3] (0.5 mg/kg i.p.) and 65.8% in data set [3] (2.0 mg/kg i.p.). Further, the “Prolongation rate of survival time” value in [4] stood at 36.7%. The IC50 worked out at 920 nM at dopamine (D2) receptor, 750 nM at serotonin (S1) receptor, 29 nM at serotonin (S2) receptor and 1100 nM at adrenaline (α1) receptor. Moreover, the response vs control in vivo at 100 mg/kg in data set [5] came out at 150%. In the data set on mice, the Lethality of animals result was “no animal was died”.
